Consider one molecule from patent US8518965B2, “Compositions and methods for treating cancer” (Trustees of Dartmouth College, priority 2009, dated 2013).

The IC50 is the concentration that inhibits the measured activity by half.

Experiment [1] has as its system NCI/ADR-RES human breast cancer cells. In words: Colony formation assay, NCI/ADR-RES cells. Format: cell-based. The conditions noted are these: 72 hours with compound, colonies counted after 14 days. The procedure: NCI/ADR-RES human breast cancer cells (500 cells), HCT116 human colon cancer cells (400 cells) or SF 295 human glioblastoma cells (1000 cells) were plated in 60 mm Petri dishes containing 2.7 ml of medium (modified McCoy's 5a medium containing 10% fetal bovine serum and 100 units/ml penicillin and 100 μg/ml streptomycin). The cells were incubated in a CO2 incubator at 37° C. for 5 hours for attachment to the bottom of Petri dishes. Compounds were prepared fresh in medium at ten times the final concentration, and then 0.3 ml of this stock solution was added to the 2.7 ml of medium in the dish. The cells were then incubated with compounds for 72 hours at 37° C. At the end of incubation, the compound-containing media were decanted, the dishes were rinsed with 4 ml of Hank's Balance Salt Solution (HBSS), 5 ml of fresh medium was added, and the dishes were returned to the incubator for colony formation. The cell colonies were counted using a colony counter after incubation for 14 days for NCI/ADR-RES cells and 10 days for HCT116 cells and SF 295 cells. Cell survival was calculated and the IC50 values (the drug concentration producing 50% inhibition of colony formation) were determined for each tested compound.

Experiment [2] deals with HCT116 human colon cancer xenografts. As to the kind of experiment: In vivo efficacy, HCT116 xenografts in nude mice. The following applies: single i.p. injection. Further details: species or system nude mice (nu/nu genotype). How it is done:
This in vivo anticancer efficacy study was performed on nude mice (nu/nu genotype) bearing HCT116 human colon cancer xenografts. These human tumors grew exponentially following implantation into the flanks of the mice and reached a diameter of 3 mm. Treatment was initiated at that time, with the first day of treatment designated as day 0 for all calculations and plots. […] Mice in the control group, bearing 3 mm diameter tumors, were treated with vehicle alone. After treatment, tumor sizes were measured by caliper every day. Daily measurement of the tumor diameters (d1, d2) in two orthogonal directions was used to calculate the tumor volume (tumor volume=π/6{(d1+d2)/2}^3) using the approximation that the tumors were spherical. The values of time (days) required to grow the tumor to the size of 1,000 cu. mm after various treatments and tumor growth delay percentage were calculated for evaluating the treatment effects. Survival times and tumor inhibitory effects on day 20 after treatment were also observed and recorded.

Experiment [3] relates to SF 295 human glioblastoma xenografts. As to the kind of experiment: In vivo efficacy, SF 295 xenografts in nude mice. The following applies: D11B 382 mg/kg single i.p. injection. The procedure: In vivo anticancer efficacy studies were performed on nude mice (nu/nu genotype) bearing SF 295 human glioblastoma xenografts. […]. Treatment was initiated at that time, with the first day of treatment designated as day 0 for all calculations and plots. […] Compound doses were 382 mg/kg for D11B, 212 mg/kg for D15B, 5 mg/kg for D25B, and 10.6 mg/kg for D35B. Mice in the control group bearing 3 mm diameter tumors was treated with vehicle alone. After treatment, tumor sizes were measured by caliper every day. Daily measurements of the tumor diameters (d1, d2) in two orthogonal directions was used to calculate the tumor volume (tumor volume=π/6{(d1+d2)/2}^3) using the approximation that the tumors were spherical. The values of time (days) required to grow the tumor to twice their initial size after various treatments was calculated as tumor doubling time (TDT) for evaluating the treatment effects. Survival times and curative effects after treatment were also observed and recorded.

Molecules are shown by their SMILES. Where only a bound is given, the exact number is not on record here.

Regarding `c1ccc2c(Nc3ccc(Oc4ccc(Nc5c6ccccc6nc6ccccc56)cc4)cc3)c3ccccc3nc2c1` [Compound D11B], in experiment [1], the IC50 was 1310 nM. The Mean survival time is on record as 40.5 days in experiment [2] (control group 19.7 days) and at least 58.67 days in experiment [3] (control group 40.5 days). Besides, the “Tumor growth delay percentage” value in experiment [2] (time for growth up to the tumor volume of 1,000 cu. mm) was 131%. In experiment [2] (tumor growth on day 20 after drug administration), the Inhibition ratio is listed as 4.65. In addition, the Curative effect entry in experiment [3] is recorded as “one mouse was even cured”. The “Ratio of TDTs (D11B treated over control)” value in experiment [3] was found to be 9.8. Further, the “TDT (tumor doubling time)” value in experiment [3] (control group 2.5 days) is on record as 24.5 days.
